Results as given in patent US10260105B2, “MiR-320e and colorectal cancer” (BAYLOR RESEARCH INSTITUTE, priority 2014, dated 2019).

Tested on: stage II and III CRC
Test: Kaplan-Meier DFS and OS estimates in validation cohort patients treated with 5-FU-based adjuvant chemotherapy
Type: in vivo
Conditions: 167 stage II and III CRC patients, 5-FU-based adjuvant chemotherapy for 6 months after tumor resection
Description: Validation Patient Cohort. This group included a total of 237 CRC patients (65 stage II, 102 stage III, and 70 stage IV) that were enrolled as part of a clinical trial conducted at the Hospital Clinic, Barcelona, Spain. Patients in this clinical trial were enrolled between 1996 and 2008, and the median follow-up was 4.7 years in patients that were alive at last follow-up, and 3.5 years for all patients. All stage II and III patients were treated with 5-FU-based adjuvant chemotherapy following resection of the primary tumor; all stage IV patients were treated with 5-FU and oxaliplatin (Takahashi, et al., 2012). Normal colonic mucosa (n=20) from healthy individuals was obtained from the Pathology Department of the Hospital Clinic of Barcelona and included as controls. This study was approved by the Institutional Review Board (IRB) of Hospital Clinic, Barcelona, Spain, and a written informed consent was obtained from all patients.
Distributions in the validation cohort are presented as mean (SD) or median (range) depending on level of skewness in the data for continuous variables, or as counts (percentage) for categorical variables. Nonparametric tests (rank sum, Kruskal Wallace) were used to compare expression between groups. Kaplan Meier and Cox regression models were used to assess association with time to event outcomes that included overall survival (OS), defined as time from diagnosis to death, and disease free survival (DFS) defined as time from diagnosis to disease recurrence or death. Due to the scale of miR320e expression, hazard ratios are presented as the change in risk of a person at the 75th percentile relative to a person at the 25th percentile of miR-320e distribution. This can be interpreted as the increase in risk due to a patient moving from the middle of the bottom half of the miR-320e distribution to the middle of the top half of the distribution. Bootstrapping was used to calculate an optimism corrected c-index, analogous to the area under the receiver operating characteristic curve (Steyerberg, et al., 2011). A c-index of 0.5 denotes random predictions, whereas a c index of 1 denotes perfect predictions.
Higher expression miR320e is associated with poor outcome in patients with stage II and III CRC. To determine the potential prognostic significance of miR-320e expression, Cox regression models were utilized with the miRNA expression levels considered as continuous variables. There were 167 stage II and III CRC patients in the validation cohort with sufficient data for these analyses. All of these patients were treated with 5-FU-based adjuvant chemotherapy for 6 months subsequent to tumor resection. Of these patients, 65 out of 167 (38.9%) were stage II and the remainder were stage III. […]

## O=c1[nH]cc(F)c(=O)[nH]1 [5-FU, 5-fluorouracil]
2 years
  2-year Kaplan-Meier DFS estimate: 78.32%
  2-year OS estimate: 91.57%
5 years
  5-year Kaplan-Meier DFS estimate: 63.96%
  5-year OS estimate: 78.52%
